Experimental data from patent publication US4956171A, “Transdermal drug delivery using a dual permeation enhancer and method of performing the same” (Paco Pharmaceutical Services, Inc., priority 1989, dated 1990).
Counter-ions that a name gives are not always drawn. Like-named read-outs stand apart in the source and are kept apart here.

Key:
[1] = In vitro flux of drug from saturated test solutions through human cadaver skin into an infinite sink, Franz diffusion cell; type: in vitro ADME
Experimental: For the evaluation of the degree of permeation enhancement, saturated test solutions of buprenorphine HCl in methyl laurate and/or sucrose cocoate were directly applied onto the epidermis side of human cadaver skin loaded between donor and receptor compartments of a standard Franz diffusion cell. The cell was kept at 35° C. during the diffusion study. […] The sucrose cocoate used for the test is commercially available in a 48 wt. % aqueous solution under the trade name Crodesta® SL-40, through Croda, Inc.

[2] = In vitro release rate from the reservoir-type system into an infinite sink; settings: Example 1 reservoir-type system
[3] = optimized delivery system, constant rate over extended time periods
[4] = cited from earlier work
[5] = relative to morphine; background statement; cited from earlier work
[6] = on over dosage; cited from earlier work
[7] = Table 4, saturated in 48 wt. % sucrose cocoate aqueous solution
[8] = Table 4, saturated in 100 wt. % methyl laurate
[9] = Table 4, saturated in methyl laurate : 48 wt. % sucrose cocoate aqueous solution 3:7
[10] = Example 1 reservoir-type system, 35° C.

O=C(O)Cc1ccccc1Nc1c(Cl)cccc1Cl [Dichlofenac Sodium]
Flux, Solution A [1]: 14 μg/cm^2 /day | Flux, Solution A:B(3:7) [1]: 215 μg/cm^2 /day | Flux, Solution B [1]: 146 μg/cm^2 /day

CO[C@]12CC[C@@]3(C[C@@H]1[C@](C)(O)C(C)(C)C)[C@H]1Cc4ccc(O)c5c4[C@@]3(CCN1CC1CC1)[C@H]2O5 [buprenorphine HCl]
amount delivered (Example 1 reservoir-type system, during the 72 hour period): 360 μg/cm^2 | loaded amount transdermally delivered (Example 1 reservoir-type system, over 72 hours, initial load about 1800 μg/cm^2): about 20 wt. % | skin flux, Solution B ([1]; Table 3, saturated in 48 wt. % sucrose cocoate aqueous solution, 35° C.): 100 μg/cm^2 /day | skin flux, Solution A ([1]; Table 3, saturated in 100 wt. % methyl laurate, 35° C.): 8 μg/cm^2 /day | skin flux, Solution A:B(1:9) ([1]; Table 3, saturated in methyl laurate : 48 wt. % sucrose cocoate aqueous solution 1:9, 35° C.): 226 μg/cm^2 /day

C[C@]12CC[C@@H]3c4ccc(O)cc4CC[C@H]3[C@@H]1CC[C@@H]2O [Estradiol]
Flux, Solution B [1, 7]: 7.4 μg/cm^2 /day | Flux, Solution A [1, 8]: 4.3 μg/cm^2 /day

COC(=O)C1=C(C)NC(C)=C(C(=O)OC)C1c1ccccc1[N+](=O)[O-] [Nifedipine]
Flux, Solution B [1, 7]: 14 μg/cm^2 /day | Flux, Solution A [1, 8]: 15 μg/cm^2 /day | Flux, Solution A:B(3:7) [1, 9]: 23 μg/cm^2 /day

C[C@]12C=CC(=O)C=C1CC[C@@H]1[C@@H]2[C@@H](O)C[C@@]2(C)[C@H]1CC[C@]2(O)C(=O)CO [Prednisolone]
Flux, Solution B [1, 7]: 8 μg/cm^2 /day | Flux, Solution A [1, 8]: 51 μg/cm^2 /day | Flux, Solution A:B(3:7) [1, 9]: 188 μg/cm^2 /day

CO[C@]12CC[C@@]3(C[C@@H]1[C@](C)(O)C(C)(C)C)[C@H]1Cc4ccc(O)c5c4[C@@]3(CCN1CC1CC1)[C@H]2O5 [buprenorphine]
release through the microporous membrane ([2]; infinite sink): rapid release | loaded amount depleted by release into an infinite sink ([2]; within the first 12 hours): more than 70 wt. % | skin irritation [3]: without uncomfortable skin irritation | liver and intestinal metabolism ([4]; background statement): extensive liver and intestinal metabolism | bioavailability ([4]; due to extensive liver and intestinal metabolism): poor bioavailability | analgesic activity, times more potent than morphine [5]: ~30 times | steady state buprenorphine flux (Example 1 reservoir-type system, 3 wt. % buprenorphine HCl, 35° C.): about 5 μg/cm^2 /hr. | period over which flux stayed at a constant rate [10]: 72 h | time to steady state flux [10]: an hour | period over which steady state flux remained substantially constant (Example 3 laminated matrix-type system): 72 h | steady state buprenorphine flux (Example 3 laminated matrix-type system, 5.5 wt. % buprenorphine HCl): about 3.5 μg/cm^2 /hr. | in vitro human cadaver skin delivery rate (dual permeation enhancer sucrose cocoate + methyl laurate, full range): 1-10 μg/cm^2 /hr. | in vitro human cadaver skin delivery rate, preferable range (dual permeation enhancer sucrose cocoate + methyl laurate, preferably): 2-6 μg/cm^2 /hr. | side effects [6]: severe side effects, particularly respiratory depression

CC(C)Cc1ccc(C(C)C(=O)O)cc1 (stereo not drawn) [Ibuprofen]
Flux, Solution B [1, 7]: 547 μg/cm^2 /day | Flux, Solution A [1, 8]: 586 μg/cm^2 /day | Flux, Solution A:B(3:7) [1, 9]: 1897 μg/cm^2 /day
